The test system of series [1] is Scirpus juncoides. Kind of series: Submersion test, treatment 3 days after transplantation: herbicidal effect. Type of series: in vivo. The note with it: rated 30 days after application.
Series [2] deals with paddy rice. Briefly: Submersion test, treatment 3 days after transplantation: injury to paddy rice. Type of series: in vivo. Further details: key: 0: No injury; 1: Substantially no injury; 2: Slight injury; 3: Some injury; 4: Remarkable injury; 5: Almost all crops dead. The note with it: rated 30 days after application.
The test system of series [3] is Scirpus juncoides. Kind of series: Submersion test, treatment 10 days after transplantation: herbicidal effect. The format is in vivo. The following applies: rated 30 days after application.

Four compounds from patent US20040058957A1, “Benzothiophene derivatives and herbicidal compositions containing the same” (priority 2000, published 2004) can be followed below.

Structures are written as SMILES.

As a reminder, the melting point is the temperature of the solid-liquid transition.

Turning to `CSC1Cc2c(ccc(C(=O)C3C(=O)CCCC3=O)c2C(F)(F)F)S1(=O)=O` (stereo not shown) [Compound No. 11, 2-methylthio-4-trifluoromethyl-5-(1,3-dioxocyclohex-2-yl)carbonyl-2,3-dihydrobenzothiophene 1,1-dioxide], the melting point is 206.1 to 211.6 °C. The “Herbicidal effect Scirpus juncoides” value in series [1] (application rate 100 g/ha) is 5 (90% or higher (almost completely dead)). Moreover, in series [1] (application rate 200 g/ha), the “Herbicidal effect Scirpus juncoides” value is listed as 5 (90% or higher (almost completely dead)). The compound also registered an Injury paddy rice in series [2] (application rate 100 g/ha) of 0. Also, in series [2] (application rate 200 g/ha), the Injury paddy rice stood at 0. Also, the “Herbicidal effect Scirpus juncoides” value in series [3] (application rate 100 g/ha) is recorded as 5 (90% or higher (almost completely dead)). For the same compound, the “Herbicidal effect Scirpus juncoides” value in series [3] (application rate 200 g/ha) is reported as 5 (90% or higher (almost completely dead)).
On to `COC(=O)C(C(=O)OC)C1=C(C(=O)c2ccc3c(c2Cl)CC(SC)S3(=O)=O)C(=O)CCC1` (stereo not shown) [Compound No. 40, 4-chloro-2-methylthio-5-[3-(bis-methoxycarbonyl)methyl-1-oxo-2-cyclohexen-2-yl]carbonyl-2,3-dihydrobenzothiophene 1,1-dioxide], for which the melting point lay within 150.3 to 150.5 °C. In addition, in series [1] (application rate 100 g/ha), the “Herbicidal effect Scirpus juncoides” value is recorded as 4 (70% or higher but less than 90%). The “Herbicidal effect Scirpus juncoides” value in series [1] (application rate 200 g/ha) was 5 (90% or higher (almost completely dead)). In series [2] (application rate 100 g/ha), the Injury paddy rice was 0. For the same compound, the Injury paddy rice in series [2] (application rate 200 g/ha) worked out at 0. In series [3] (application rate 100 g/ha), the “Herbicidal effect Scirpus juncoides” value is listed as 4 (70% or higher but less than 90%). For the same compound, the “Herbicidal effect Scirpus juncoides” value in series [3] (application rate 200 g/ha) is reported as 5 (90% or higher (almost completely dead)).
`CSC1Cc2c(Cl)c(C(=O)C3C(=O)CCCC3=O)cc(C)c2S1(=O)=O` (stereo not shown) [Compound No. 43, 4-chloro-7-methyl-2-methylthio-5-(1,3-dioxocyclohex-2-yl)carbonyl-2,3-dihydrobenzothiophene 1,1-dioxide] displayed a melting point of 195.5 to 197 °C. The “Herbicidal effect Scirpus juncoides” value in series [1] (application rate 100 g/ha) was 5 (90% or higher (almost completely dead)). In addition, the “Herbicidal effect Scirpus juncoides” value in series [1] (application rate 200 g/ha) was 5 (90% or higher (almost completely dead)). Besides, the Injury paddy rice in series [2] (application rate 100 g/ha) is recorded as 0. The compound further yielded an Injury paddy rice in series [2] (application rate 200 g/ha) of 0. Besides, the “Herbicidal effect Scirpus juncoides” value in series [3] (application rate 100 g/ha) is 5 (90% or higher (almost completely dead)). In series [3] (application rate 200 g/ha), the “Herbicidal effect Scirpus juncoides” value is 5 (90% or higher (almost completely dead)).
In turn, `CCSC1Cc2c(Cl)c(C(=O)C3C(=O)CCCC3=O)cc(C)c2S1(=O)=O` (stereo not shown) [Compound No. 44, 4-chloro-7-methyl-2-ethylthio-5-(1,3-dioxocyclohex-2-yl)carbonyl-2,3-dihydrobenzothiophene 1,1-dioxide] registered a melting point of 143.2 to 154.8 °C. In series [1] (application rate 100 g/ha), the “Herbicidal effect Scirpus juncoides” value is on record as 5 (90% or higher (almost completely dead)). Further, the “Herbicidal effect Scirpus juncoides” value in series [1] (application rate 200 g/ha) was 5 (90% or higher (almost completely dead)). In series [2] (application rate 100 g/ha), this compound gave an Injury paddy rice of 0. For the same compound, the Injury paddy rice in series [2] (application rate 200 g/ha) stood at 0. The “Herbicidal effect Scirpus juncoides” value in series [3] (application rate 100 g/ha) is reported as 5 (90% or higher (almost completely dead)). Also, in series [3] (application rate 200 g/ha), the “Herbicidal effect Scirpus juncoides” value is on record as 5 (90% or higher (almost completely dead)).
